Drawing on US20240293558A1, “KRAS INHIBITOR CONJUGATES” (Erasca, Inc., priority 2021, published 2024), this text covers IC50 for twelve compounds.

What is called IC50 is the concentration that inhibits the measured activity by half.

The target in experiment [1] is KRAS G12D (Homo sapiens, UniProt P01116, G12D). The experiment is described as follows: In-vitro RAS-RAF binding assay (RRB), HTRF/FRET. Format: biochemical. Further details: Biotinylated KRAS protein amino acids 1-169 (produced at Erasca); made in house. The note with it: read-out: Inhibition of RAS-RAF Binding (in-vitro) KRAS (G12D) IC50. Summed up:
(§1)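 Compounds preincubated with terbium-labelled biotinylated KRAS (aa 1-169, 30 nM) before 60 min SOS1-catalysed exchange to GTPgS. Binding of the d2-labelled cRAF RBD (30 nM) is read as FRET at equilibrium in duplicate. Buffer: 50 mM HEPES pH 7.5, 100 mM NaCl, 1 mM MgCl2, 1 mM DTT.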
For orientation: TR-FRET usually uses a lanthanide donor and a delayed reading to cut background.

In experiment [2] the target is T1, KRAS (WT) (Homo sapiens, UniProt P01116).
T1 construct: Biotinylated KRAS protein amino acids 1-169 (produced at Erasca); made in house
The experiment is described as follows: In-vitro RAS-RAF binding assay (RRB), HTRF/FRET. Format: biochemical. The note with it: read-out: Inhibition of RAS-RAF Binding (in-vitro) KRAS (WT) IC50. Summed up:
as §1

Where [3] appears, read: Table 2, average of multiple runs of each compound.

Read-outs that look alike come from different tables or passages of the source.

Chain of KRAS G12D (P01116 1-169 isoform P01116-2 G12D): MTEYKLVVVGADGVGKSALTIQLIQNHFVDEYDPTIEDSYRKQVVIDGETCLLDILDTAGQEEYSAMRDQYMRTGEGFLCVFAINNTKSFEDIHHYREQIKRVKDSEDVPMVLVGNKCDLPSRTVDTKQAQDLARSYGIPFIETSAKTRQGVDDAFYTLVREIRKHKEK
T1 sequence (P01116 1-169 isoform P01116-2): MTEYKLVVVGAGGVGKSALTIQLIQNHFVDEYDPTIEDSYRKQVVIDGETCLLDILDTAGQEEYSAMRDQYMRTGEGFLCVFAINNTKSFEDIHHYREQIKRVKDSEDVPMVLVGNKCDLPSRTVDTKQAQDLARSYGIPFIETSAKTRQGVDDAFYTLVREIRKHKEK

Regarding `Cc1ncsc1-c1ccc([C@H](C)NC(=O)[C@@H]2C[C@@H](O)CN2C(=O)[C@@H](NC(=O)CCCCN2CC[C@H]2COc2nc(N3CC4CCC(C3)N4)c3cc(Cl)c(-c4ccc(F)c5sc(N)c(C#N)c45)c(F)c3n2)C(C)(C)C)cc1` [Example 23, (2S,4R)-1-((2S)-2-(5-((2S)-2-(((7-(2-amino-3-cyano-7-fluorobenzo[b]thiophen-4-yl)-4-(3,8-diazabicyclo[3.2.1]octan-3-yl)-6-chloro-8-fluoroquinazolin-2-yl)oxy)methyl)azetidin-1-yl)pentanamido)-3,3-dimethylbutanoyl)-4-hydroxy-N—((S)-1-(4-(4-methylthiazol-5-yl)phenyl)ethyl)pyrrolidine-2-carboxamide], the IC50 in experiment [1] (setting [3]) is 0.0126 µM; in experiment [2] (setting [3]), 0.065 µM.
The like results for `C[C@H](NC(=O)[C@@H]1C[C@@H](O)CN1C(=O)[C@@H](NC(=O)CCOCCCN1CCC[C@H]1COc1nc(N2CC3CCC(C2)N3)c2cc(Cl)c(-c3ccc(F)c4sc(N)c(C#N)c34)c(F)c2n1)C(C)(C)C)c1ccc(-c2c(F)cc(F)cc2F)cc1` [Example 37, (2S,4R)-1-((2S)-2-(3-(3-((2S)-2-(((7-(2-amino-3-cyano-7-fluorobenzo[b]thiophen-4-yl)-4-(3,8-diazabicyclo[3.2.1]octan-3-yl)-6-chloro-8-fluoroquinazolin-2-yl)oxy)methyl)pyrrolidin-1-yl)propoxy)propanamido)-3,3-dimethylbutanoyl)-4-hydroxy-N—((S)-1-(2′,4′,6′-trifluoro-[1,1′-biphenyl]-4-yl)ethyl)pyrrolidine-2-carboxamide] were, in that order, 0.0194 µM and 0.275 µM.
As for `C#Cc1c(F)ccc2cc(O)cc(-c3ncc4c(N5CC6CCC(C5)N6)nc(OC[C@@H]5CCCN5CCCOCCC(=O)N[C@H](C(=O)N5C[C@H](O)C[C@H]5C(=O)N[C@@H](C)c5ccc(-c6c(F)cccc6F)nc5)C(C)(C)C)nc4c3F)c12` [Example 31, (2S,4R)-1-((2S)-2-(3-(3-((2S)-2-(((4-(3,8-diazabicyclo[3.2.1]octan-3-yl)-7-(8-ethynyl-7-fluoro-3-hydroxynaphthalen-1-yl)-8-fluoropyrido[4,3-d]pyrimidin-2-yl)oxy)methyl)pyrrolidin-1-yl)propoxy)propanamido)-3,3-dimethylbutanoyl)-N—((S)-1-(6-(2,6-difluorophenyl)pyridin-3-yl)ethyl)-4-hydroxypyrrolidine-2-carboxamide], the IC50 amounted to 0.00838 µM in experiment [1] (setting [3]) and 0.0278 µM in experiment [2] (setting [3]).
On the same counts, the results for `Cc1ccccc1-c1ccc([C@H](C)NC(=O)[C@@H]2C[C@@H](O)CN2C(=O)[C@@H](NC(=O)CCOCCCN2CCC[C@H]2COc2nc(N3CC4CCC(C3)N4)c3cc(Cl)c(-c4ccc(F)c5sc(N)c(C#N)c45)c(F)c3n2)C(C)(C)C)cc1` [Example 26, (2S,4R)-1-((2S)-2-(3-(3-((2S)-2-(((7-(2-amino-3-cyano-7-fluorobenzo[b]thiophen-4-yl)-4-(3,8-diazabicyclo[3.2.1]octan-3-yl)-6-chloro-8-fluoroquinazolin-2-yl)oxy)methyl)pyrrolidin-1-yl)propoxy)propanamido)-3,3-dimethylbutanoyl)-4-hydroxy-N—((S)-1-(2′-methyl-[1,1′-biphenyl]-4-yl)ethyl)pyrrolidine-2-carboxamide] are 0.012 µM and 0.0918 µM.
With `C[C@H](NC(=O)[C@@H]1C[C@@H](O)CN1C(=O)[C@@H](NC(=O)CCCCN1CCC[C@H]1COc1nc(N2CC3CCC(C2)N3)c2cnc(-c3cc(O)cc4cccc(F)c34)c(F)c2n1)C(C)(C)C)c1ccc(-c2cccc(F)c2)cc1` [Example 86, (2S,4R)-1-((2S)-2-(5-((2S)-2-(((4-(3,8-diazabicyclo[3.2.1]octan-3-yl)-8-fluoro-7-(8-fluoro-3-hydroxynaphthalen-1-yl)pyrido[4,3-d]pyrimidin-2-yl)oxy)methyl)pyrrolidin-1-yl)pentanamido)-3,3-dimethylbutanoyl)-N-((S)-1-(3′-fluoro-[1,1′-biphenyl]-4-yl)ethyl)-4-hydroxypyrrolidine-2-carboxamide], the IC50 worked out at 0.00905 µM in experiment [1] (setting [3]) and 0.568 µM in experiment [2] (setting [3]).
Consider `C#Cc1c(F)ccc2cc(O)cc(-c3ncc4c(N5CC6CCC(C5)N6)nc(OCCN5CCC(F)(COc6cc([C@H](C(=O)N7C[C@H](O)C[C@H]7C(=O)N[C@@H](C)c7ccc(-c8c(F)cccc8F)cc7)C(C)C)on6)CC5)nc4c3F)c12` [Example 62, (2S,4R)-1-((2R)-2-(3-((1-(2-((4-(3,8-diazabicyclo[3.2.1]octan-3-yl)-7-(8-ethynyl-7-fluoro-3-hydroxynaphthalen-1-yl)-8-fluoropyrido[4,3-d]pyrimidin-2-yl)oxy)ethyl)-4-fluoropiperidin-4-yl)methoxy)isoxazol-5-yl)-3-methylbutanoyl)-N-((S)-1-(2′,6′-difluoro-[1,1′-biphenyl]-4-yl)ethyl)-4-hydroxypyrrolidine-2-carboxamide], for which the IC50 was 0.0134 µM in experiment [1] (setting [3]) and over 10 µM in experiment [2] (setting [3]).
Turning to `CC(C)[C@@H](C(=O)N1C[C@H](O)C[C@H]1C(=O)N[C@@H](C)c1ccc(-c2c(F)cccc2F)cc1)c1cc(OCC2(C)CCN(CCOc3nc(N4CC5CCC(C4)N5)c4cc(Cl)c(-c5ccc(F)c6sc(N)c(C#N)c56)c(F)c4n3)CC2)no1` [Example 66, (2S,4R)-1-((2R)-2-(3-((1-(2-((7-(2-amino-3-cyano-7-fluorobenzo[b]thiophen-4-yl)-4-(3,8-diazabicyclo[3.2.1]octan-3-yl)-6-chloro-8-fluoroquinazolin-2-yl)oxy)ethyl)-4-methylpiperidin-4-yl)methoxy)isoxazol-5-yl)-3-methylbutanoyl)-N-((S)-1-(2′,6′-difluoro-[1,1′-biphenyl]-4-yl)ethyl)-4-hydroxypyrrolidine-2-carboxamide], the IC50 in experiment [1] (setting [3]) is 0.0198 µM; in experiment [2] (setting [3]), at least 10 µM.
Regarding `Cc1ncsc1-c1ccc([C@H](C)NC(=O)[C@@H]2C[C@@H](O)CN2C(=O)[C@@H](NC(=O)CCOCCCN2CCC[C@H]2COc2nc(N3CC4CCC(C3)N4)c3cc(C(F)(F)F)c(-c4ccc(F)c5sc(N)c(C#N)c45)cc3n2)C(C)(C)C)cc1` [Example 80, (2S,4R)-1-((2S)-2-(3-(3-((2S)-2-(((7-(2-amino-3-cyano-7-fluorobenzo[b]thiophen-4-yl)-4-(3,8-diazabicyclo[3.2.1]octan-3-yl)-6-(trifluoromethyl)quinazolin-2-yl)oxy)methyl)pyrrolidin-1-yl)propoxy)propanamido)-3,3-dimethylbutanoyl)-4-hydroxy-N-((S)-1-(4-(4-methylthiazol-5-yl)phenyl)ethyl)pyrrolidine-2-carboxamide], the IC50 in experiment [1] (setting [3]) worked out at 0.0139 µM; in experiment [2] (setting [3]) it was 0.0637 µM.
The like results for `C#Cc1c(F)ccc2cc(O)cc(-c3ncc4c(N5CC6CCC(C5)N6)nc(OC[C@@H]5CCCN5CCCOCCC(=O)N[C@H](C(=O)N5C[C@H](O)C[C@H]5C(=O)N[C@@H](C)c5ccc(-c6c(Cl)cccc6Cl)cc5)C(C)(C)C)nc4c3F)c12` [Example 45] were, in that order, 0.00897 µM and 0.0449 µM.
On the same counts, the results for `C#Cc1c(F)ccc2cc(O)cc(-c3ncc4c(N5CC6CCC(C5)N6)nc(OC[C@@H]5CCCN5CCCOCCC(=O)N[C@H](C(=O)N5C[C@H](O)C[C@H]5C(=O)N[C@@H](C)c5ccc(-c6ccccc6C#N)cc5)C(C)(C)C)nc4c3F)c12` [Example 40, (2S,4R)-1-((2S)-2-(3-(3-((2S)-2-(((4-(3,8-diazabicyclo[3.2.1]octan-3-yl)-7-(8-ethynyl-7-fluoro-3-hydroxynaphthalen-1-yl)-8-fluoropyrido[4,3-d]pyrimidin-2-yl)oxy)methyl)pyrrolidin-1-yl)propoxy)propanamido)-3,3-dimethylbutanoyl)-N-((S)-1-(2′-cyano-[1,1′-biphenyl]-4-yl)ethyl)-4-hydroxypyrrolidine-2-carboxamide] are 0.00888 µM and 0.0265 µM.
The like results for `C#Cc1c(F)ccc2cc(O)cc(-c3ncc4c(N5CC6CCC(C5)N6)nc(OC[C@@H]5CCCN5CCCOCCC(=O)N[C@H](C(=O)N5C[C@H](O)C[C@H]5C(=O)N[C@@H](C)c5ccc(-c6c(C)ccc(C)c6C)cc5)C(C)(C)C)nc4c3F)c12` [Example 56, (2S,4R)-1-((2S)-2-(3-(3-((2S)-2-(((4-(3,8-diazabicyclo[3.2.1]octan-3-yl)-7-(8-ethynyl-7-fluoro-3-hydroxynaphthalen-1-yl)-8-fluoropyrido[4,3-d]pyrimidin-2-yl)oxy)methyl)pyrrolidin-1-yl)propoxy)propanamido)-3,3-dimethylbutanoyl)-4-hydroxy-N-((S)-1-(2′,3′,6′-trimethyl-[1,1′-biphenyl]-4-yl)ethyl)pyrrolidine-2-carboxamide] were, in that order, 0.00936 µM and 0.0657 µM.
In the case of `Cc1cc(N)nc(-c2c(Cl)cc3c(N4CC5CCC(C4)N5)nc(OC[C@@H]4CCCN4CCCOCCC(=O)N[C@H](C(=O)N4C[C@H](O)C[C@H]4C(=O)N[C@@H](C)c4ccc(-c5scnc5C)cc4)C(C)(C)C)nc3c2F)c1C(F)(F)F` [Example 1, (2S,4R)-1-[(2S)-2-[3-[3-[(2S)-2-[[7-[6-amino-4-methyl-3-(trifluoromethyl)-2-pyridyl]-6-chloro-4-(3,8-diazabicyclo[3.2.1]octan-3-yl)-8-fluoro-quinazolin-2-yl]oxymethyl]pyrrolidin-1-yl]propoxy]propanoylamino]-3,3-dimethyl-butanoyl]-4-hydroxy-N-[(1S)-1-[4-(4-methylthiazol-5-yl)phenyl]ethyl]pyrrolidine-2-carboxamide], the IC50 in experiment [1] (Table 1) stood at 0.015 µM; in experiment [1] (setting [3]), 0.0154 µM; in experiment [2] (Table 1) it was 0.799 µM; in experiment [2] (setting [3]), 0.799 µM.
